Results published in patent US9814233B2, “Composition comprising a pesticide, a surfactant and an alkoxylate of 2-propyheptylamine” (BASF SE, priority 2011, dated 2017).

Tests used:
[1] = tested on: winter wheat (cultivar Cubus); test: Greenhouse test of herbicidal activity of glyphosate spray mixtures on winter wheat; type: in vivo; conditions: after 21 days
Experimental: (§1) For the greenhouse tests, winter wheat (cultivar Cubus) and soybean (cultivar Oxford) were sown or potted in loamy sandy soil to a depth of 1-2 cm. When the plants had reached a growth height of 10 to 25 cm (i.e., around 10 to 21 days after sowing), the spray mixtures were applied to the plants in a spraying cabin.
(§2) A concentrated formulation comprising glyphosate isopropylammonium in solution in water comprising the surfactants stated and amine alkoxylate A from Example 1 was diluted with deionized water and applied at a water application rate of 375 l/ha (140 g or 280 g of glyphosate/ha). The temperatures in the experimental period were between 18-35° C. During this time, the experimental plants received optimum watering, with nutrients being supplied via the water used for watering.
(§3) The herbicidal activity was evaluated by awarding scores to the treated plants (four each time) in comparison to the untreated control plants. The evaluation scale ranges from 0% to 100% activity. 100% activity means the complete death at least of those parts of the plant that are above ground.

[2] = tested on: soybean (cultivar Oxford); test: Greenhouse test of herbicidal activity of glyphosate spray mixtures on soybean; type: in vivo; conditions: after 21 days
Experimental: as §1, §2, §3

[3] = 140 g/ha glyphosate, without amine alkoxylate/surfactant
[4] = 280 g/ha glyphosate, without amine alkoxylate/surfactant
[5] = 140 g/ha glyphosate, amount 300 g/ha
[6] = 280 g/ha glyphosate, amount 300 g/ha

Row | Compound | Winter wheat efficacy [1, 3] [%] | Winter wheat efficacy [1, 4] [%] | Soybean efficacy [2, 3] [%] | Soybean efficacy [2, 4] [%] | Winter wheat efficacy [1, 5] [%] | Winter wheat efficacy [1, 6] [%] | Soybean efficacy [2, 5] [%] | Soybean efficacy [2, 6] [%]
1 | CC(C)N.O=C(O)CNCP(=O)(O)O [Without, glyphosate isopropylammonium] | 53 | 68 | 10 | 10 | – | – | – | –
2 | C10-13-alkylbenzenesulfonate, free acid [Surfactant A] | – | – | – | – | 84 | 90 | 64 | 71
